Test results published in publication PMC6099547, “Expression, Purification, and Characterization of a Novel Hybrid Peptide with Potent Antibacterial Activity” (Molecules : A Journal of Synthetic Chemistry and Natural …, 2018).
Marks after values point to notes of the source that are not given here. Where a SMILES comes first, the peptide text is derived from it.

Columns and labels:
pepsin = test: Protease susceptibility, residual activity by inhibition zone assay; assay type: in vitro ADME; settings: pepsin 10 μg/mL in PBS, agar diffusion inhibition zone; for Functional activity maintained under pepsin: peptide 1 μM in PBS, control without enzyme, S. aureus ATCC25923, three replicates
Experimental: (§1) CVCC1599 as indicator strains. […] Each assay was performed in triplicate.

proteinase K = proteinase K (Parengyodontium album, UniProt P06873); test: as above; assay type: in vitro ADME; settings: proteinase K 10 μg/mL in PBS, peptide 1 μM in PBS; control without enzyme; agar diffusion inhibition zone, S. aureus ATCC25923; three replicates
Sequence of proteinase K (P06873 106-384): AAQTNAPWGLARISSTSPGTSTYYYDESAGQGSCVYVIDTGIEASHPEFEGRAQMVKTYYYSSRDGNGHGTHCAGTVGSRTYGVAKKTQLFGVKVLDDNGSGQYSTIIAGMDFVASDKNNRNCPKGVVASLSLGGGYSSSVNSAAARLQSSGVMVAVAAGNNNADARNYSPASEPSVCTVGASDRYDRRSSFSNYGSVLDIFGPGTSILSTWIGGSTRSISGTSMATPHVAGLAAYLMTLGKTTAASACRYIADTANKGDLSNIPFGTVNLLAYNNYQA
Experimental: as §1

trypsin = test: as above; settings: trypsin 10 μg/mL in PBS, peptide 1 μM in PBS; control without enzyme; agar diffusion inhibition zone, S. aureus ATCC25923; three replicates
Experimental: Antibacterial activity of recombinant C–L was assayed by the agar diffusion method with S. aureus ATCC25923 as indicator strain. […] The same volume of PBS was used as negative control. The inhibition zone was measured after incubation overnight at 37 °C. […] CVCC1599 as indicator strains. The indicator strains were cultured at 37 °C to logarithmic stage and diluted to the concentration of 1 × 10^6 cfu/mL with Mueller–Hinton (MH) broth medium, and 180 µL culture was dispensed into per well of 96-well microtiter plate. Peptides were then serially diluted, and dilutions were added into the wells (final volume 200 µL). Each assay was performed in triplicate. After incubation at 37 °C for 12 h, the plate was assessed by measuring the OD600. The MIC was defined as the lowest concentration (at which there was no change in optical density) required to prevent the growth of bacteria.
The stability of the purified recombinant C–L and synthesized C–L at different pH values (2.0–11.0) and different temperatures (37, 50, 60, 70, 80, 90, and 100 °C for 20 min) was evaluated. […] Stability of recombinant C–L and synthesized C–L was assessed by the agar diffusion method as described above and the inhibition zones were recorded. S. aureus ATCC25923 was used as the indicator strain and the inhibition zones were recorded.

E. coli CVCC245 = assay type: cell-based, Escherichia coli; settings: CVCC245, 12 h
Experimental: as §1

S. aureus ATCC 25923 = assay type: cell-based, Staphylococcus aureus; settings: ATCC 25923, 12 h
Experimental: as §1

L. mono. CVCC1599 = assay type: cell-based, Listeria monocytogenes; settings: 12 h
Experimental: as §1

sheep erythrocytes = test: Hemolytic assay; assay type: cell-based; settings: red cells of sheep
Experimental: Peptide concentrations that caused 50% hemolysis of sheep erythrocytes at 540 nm were measured to evaluate the hemolytic activities. Sheep erythrocytes with 10 mM phosphate buffered saline (PBS)/0.1% (v/v) Triton X-100 (Sigma, San Francisco, CA, USA) added were used as negative/positive control. Assays were performed in triplicate.

| SMILES | Functional activity maintained under pepsin (pepsin) | Reduction in activity when exposed to pepsin (pepsin; peptide 1 μM) | Functional activity maintained under proteinase K (proteinase K) | Functional activity maintained under trypsin (trypsin) | MIC (E. coli CVCC245) | MIC (S. aureus ATCC 25923) | MIC (L. mono. CVCC1599) | HC50 (hemolytic activity) (sheep erythrocytes) |
| --- | --- | --- | --- | --- | --- | --- | --- | --- |
| CC[C@H](C)[C@H](NC(=O)[C@H](CCCCN)NC(=O)[C@H](CCCCN)NC(=O)[C@H](Cc1ccccc1)NC(=O)[C@H](CC(C)C)NC(=O)[C@H](CCCCN)NC(=O)[C@H](Cc1c[nH]c2ccccc12)NC(=O)[C@@H](N)CCCCN)C(=O)N[C@@H](Cc1ccccc1)C(=O)N[C@@H](CCCCN)C(=O)N[C@@H](CCCNC(=N)N)C(=O)N[C@H](C(=O)N[C@H](C(=O)N[C@@H](CCC(N)=O)C(=O)N[C@@H](CCCNC(=N)N)C(=O)N[C@H](C(=O)N[C@@H](CCCCN)C(=O)N[C@@H](CC(=O)O)C(=O)N[C@@H](Cc1ccccc1)C(=O)N[C@@H](CC(C)C)C(=O)N[C@@H](CCCNC(=N)N)C(=O)N[C@@H](CC(N)=O)C(=O)O)[C@@H](C)CC)C(C)C)[C@@H](C)CC [C–L, cecropin A (1–8)–LL37 (17–30)] (H-KWKLFKKIFKRIVQRIKDFLRN-OH) | over 50% | nearly half reduction in activity | over 50% | over 50% | – | – | – | – |
| CC[C@H](C)[C@H](NC(=O)[C@H](CCCCN)NC(=O)[C@H](CCCCN)NC(=O)[C@H](Cc1ccccc1)NC(=O)[C@H](CC(C)C)NC(=O)[C@H](CCCCN)NC(=O)[C@H](Cc1c[nH]c2ccccc12)NC(=O)[C@@H](N)CCCCN)C(=O)N[C@@H](Cc1ccccc1)C(=O)N[C@@H](CCCCN)C(=O)N[C@@H](CCCNC(=N)N)C(=O)N[C@H](C(=O)N[C@H](C(=O)N[C@@H](CCC(N)=O)C(=O)N[C@@H](CCCNC(=N)N)C(=O)N[C@H](C(=O)N[C@@H](CCCCN)C(=O)N[C@@H](CC(=O)O)C(=O)N[C@@H](Cc1ccccc1)C(=O)N[C@@H](CC(C)C)C(=O)N[C@@H](CCCNC(=N)N)C(=O)N[C@@H](CC(N)=O)C(=O)O)[C@@H](C)CC)C(C)C)[C@@H](C)CC [Recombinant C–L] (H-KWKLFKKIFKRIVQRIKDFLRN-OH) | almost the same stability | – | almost the same stability | almost the same stability | 7.2 ± 0.14 ^b μg/mL | 2.2 ± 0.05 ^c μg/mL | 2.1 ± 0.03 ^c μg/mL | 221 ± 3.45 ^a μg/mL |
| CC[C@H](C)[C@H](NC(=O)[C@H](CCCCN)NC(=O)[C@H](CCCCN)NC(=O)[C@H](Cc1ccccc1)NC(=O)[C@H](CC(C)C)NC(=O)[C@H](CCCCN)NC(=O)[C@H](Cc1c[nH]c2ccccc12)NC(=O)[C@@H](N)CCCCN)C(=O)N[C@@H](Cc1ccccc1)C(=O)N[C@@H](CCCCN)C(=O)N[C@@H](CCCNC(=N)N)C(=O)N[C@H](C(=O)N[C@H](C(=O)N[C@@H](CCC(N)=O)C(=O)N[C@@H](CCCNC(=N)N)C(=O)N[C@H](C(=O)N[C@@H](CCCCN)C(=O)N[C@@H](CC(=O)O)C(=O)N[C@@H](Cc1ccccc1)C(=O)N[C@@H](CC(C)C)C(=O)N[C@@H](CCCNC(=N)N)C(=O)N[C@@H](CC(N)=O)C(=O)O)[C@@H](C)CC)C(C)C)[C@@H](C)CC [Synthesized C–L] (H-KWKLFKKIFKRIVQRIKDFLRN-OH) | maintained a portion of functional activity | – | maintained a portion of functional activity | maintained a portion of functional activity | 7.0 ± 0.21 ^b μg/mL | 2.0 ± 0.02 ^c μg/mL | 2.2 ± 0.05 ^c μg/mL | 219 ± 2.98 ^a μg/mL |
